Laboratory results: ChEMBL document CHEMBL1126422, “The preparation of novel dopamine analogues via palladium catalysed cyclisation reactions” (Bioorg Med Chem Lett, 1992)

Molecular target: D(3) dopamine receptor (Rattus norvegicus, UniProt P19020)
Assay: Compound was tested for binding affinity at the rat Dopamine receptor D3 expressed in Chinese hamster ovary cells; No significant affinity.
Type: cell-based

Sequence of D(3) dopamine receptor (P19020 whole entry): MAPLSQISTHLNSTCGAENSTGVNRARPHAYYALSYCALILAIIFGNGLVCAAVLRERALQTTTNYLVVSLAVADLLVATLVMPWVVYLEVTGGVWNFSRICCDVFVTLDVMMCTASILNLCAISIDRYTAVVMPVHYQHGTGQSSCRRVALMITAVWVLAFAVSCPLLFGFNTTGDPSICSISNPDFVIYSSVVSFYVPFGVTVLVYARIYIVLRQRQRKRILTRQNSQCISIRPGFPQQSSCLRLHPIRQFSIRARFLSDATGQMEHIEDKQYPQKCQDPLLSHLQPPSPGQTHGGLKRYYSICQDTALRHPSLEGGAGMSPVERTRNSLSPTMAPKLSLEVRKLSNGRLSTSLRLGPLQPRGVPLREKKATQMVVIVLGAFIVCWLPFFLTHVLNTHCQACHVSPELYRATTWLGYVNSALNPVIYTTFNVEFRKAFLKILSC

Row | Compound | Log Ki
1 | CCCN[C@H]1COc2ccccc2[C@@H]1C.Cl | < -6.5
2 | C=C1c2ccccc2OC[C@@H]1NCCC.Cl | > -6.5
